Test results as given in article PMC11073699, “Odorant receptors for floral- and plant-derived volatiles in the yellow fever mosquito, Aedes aegypti (Diptera: Culicidae)” (PLOS ONE, 2024).
Values joined by “and” are separate entries in the source; they are usually repeats but may differ in a detail not shown here. Equal entries are not always repeated.

Experiments:
Format in all cases: cell-based
[1] = molecular target: T1, AaegOR31 (Aedes aegypti, UniProt Q16JU0); test: Two-electrode voltage clamp of Xenopus laevis oocytes expressing AaegOR31/Orco (blends, unitary compounds, concentration-response); conditions: for Raw Data (Responses in nA), Alcohols 1 unitary compounds / Normalized response, Average, Alcohols 1 unitary compounds / Normalized response, Alcohols 1 unitary compounds / Raw Data (Responses in nA), concentration-response: AaegOR31; for Raw Data (Responses in nA), Alcohols 1 unitary compounds / Normalized response, Average, Alcohols 1 unitary compounds / Normalized response, Alcohols 1 unitary compounds: compounds of blend Alcohols 1; for Raw Data (Responses in nA), Alcohols 1 unitary compounds / Normalized response, Alcohols 1 unitary compounds: individual oocytes (Oocyte 1-8); for Normalized response, Average, Alcohols 1 unitary compounds: average of 8 oocytes; for Normalized response, Alcohols 1 unitary compounds: normalized to the strongest compound per oocyte; for Raw Data (Responses in nA), concentration-response: individual oocytes (Oocyte 1-10)
T1 sequence (Q16JU0 1-381): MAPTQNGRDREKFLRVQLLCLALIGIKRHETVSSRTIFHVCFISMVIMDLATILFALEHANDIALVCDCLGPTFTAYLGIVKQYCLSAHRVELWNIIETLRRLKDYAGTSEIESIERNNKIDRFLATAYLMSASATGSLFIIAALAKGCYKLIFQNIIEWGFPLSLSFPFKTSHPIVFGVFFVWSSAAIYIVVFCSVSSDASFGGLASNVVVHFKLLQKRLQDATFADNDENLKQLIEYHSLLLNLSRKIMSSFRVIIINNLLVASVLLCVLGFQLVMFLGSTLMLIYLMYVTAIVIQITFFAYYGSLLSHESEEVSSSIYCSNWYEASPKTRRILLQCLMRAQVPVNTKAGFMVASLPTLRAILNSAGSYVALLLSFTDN
T1 sequence (Q178U6 1-478 partner): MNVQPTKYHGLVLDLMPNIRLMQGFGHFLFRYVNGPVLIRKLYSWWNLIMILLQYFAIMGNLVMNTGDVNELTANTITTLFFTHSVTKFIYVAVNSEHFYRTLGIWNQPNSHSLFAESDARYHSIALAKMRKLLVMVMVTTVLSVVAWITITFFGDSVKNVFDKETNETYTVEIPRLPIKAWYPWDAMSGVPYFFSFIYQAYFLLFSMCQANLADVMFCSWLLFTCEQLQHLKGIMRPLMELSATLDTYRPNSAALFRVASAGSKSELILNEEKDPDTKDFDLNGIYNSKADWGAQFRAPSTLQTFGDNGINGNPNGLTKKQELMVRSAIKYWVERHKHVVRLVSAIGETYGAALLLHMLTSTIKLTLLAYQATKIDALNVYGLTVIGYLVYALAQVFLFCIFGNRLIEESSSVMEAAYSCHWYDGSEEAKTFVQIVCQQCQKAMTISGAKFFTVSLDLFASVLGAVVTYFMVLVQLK
Description: (§1) The coding regions of ten AaegOR genes of interest (S3 File) and AaegOrco were synthesized by Twist Bioscience (San Francisco, CA, USA) and cloned into the pENTR plasmid. The Gateway LR directional cloning system (Invitrogen Corp., Carlsbad, CA, USA) was utilized to subclone AaegOR coding regions into the pSP64t-RFA oocyte expression plasmid. Plasmids were purified using the GeneJet Plasmid Miniprep Kit (ThermoFisher Scientific, Waltham, MA, USA). Purified plasmids were sequenced in both directions to confirm coding regions.
(§2) Chemical compounds (S6 File) used in the deorphanization of AaegORs were purchased from Acros Organics (Morris, NJ, USA), Alfa Aesar (Ward Hill, MA, USA), and ThermoFisher Scientific (Waltham, MA, USA) at the highest purity available. Compounds were stored as 1M stocks in 100% DMSO. Serial dilutions of each compound were prepared in 10% DMSO and blended by chemical class.
(§3) pSP64t-RFA: AaegOR clones were linearized using Xbal, and cRNAs were synthesized using the mMESSAGE mMACHINE ® SP6 kit (Life Technologies, Carlsbad, CA, USA). Xenopus laevis stage V-VII oocytes purchased from Xenopus1 (Dexter, MI, USA) were stored at 18°C in Incubation medium (ND96 96 with 5% dialyzed horse serum, 50μg/mL gentamycin, 100μg/mL streptomycin, 100μg/mL penicillin, and 550μg/mL sodium pyruvate). 30nL of cRNA was injected into multiple oocytes using a microinjection syringe pump (World Precision Instruments, Sarasota, FL, USA) maintained at 18°C for 48–72 hrs. Odorant blends were perfused across individual oocytes for 10–15 seconds, held at a resting membrane potential of -80 mV using an OC-725C oocyte clamp (Warner Instruments, LLC, Hamden, CT, USA). Induced currents were measured indirectly using the two-electrode voltage clamp technique (TEVC). Following each stimulus, currents were allowed to return to baseline before further stimulation. Data was captured using the Digidata 1550 B digitizer and PClamp10 software (Molecular Devices, San Jose, CA, USA). Concentration-response curves were generated by perfusing unitary odorants over oocytes at increasing concentrations from [10^-3M] to [10^-9M]. Data were analyzed using GraphPad Prism 8 (GraphPad Software Inc., La Jolla, CA, USA). At least two biological replicates were conducted at each concentration and for each compound. Data for at least seven oocytes responding to each compound was analyzed (S7 File).

[2] = molecular target: T2, AaegOR13 (Aedes aegypti, UniProt Q16Z13); test: Two-electrode voltage clamp of Xenopus laevis oocytes expressing AaegOR13/Orco (blends, unitary compounds, concentration-response); conditions: unitary compounds; for Raw data (Responses in nA), unitary compounds of Indoles 1, Alcohols 1, Alcohols 3 / Normalized response, unitary compounds of Indoles 1, Alcohols 1, Alcohols 3: individual oocytes 1-7; for Normalized response, unitary compounds, Average: average of oocytes 1-7; for Normalized response, unitary compounds of Indoles 1, Alcohols 1, Alcohols 3: normalized per oocyte
T2 sequence (Q16Z13 1-389): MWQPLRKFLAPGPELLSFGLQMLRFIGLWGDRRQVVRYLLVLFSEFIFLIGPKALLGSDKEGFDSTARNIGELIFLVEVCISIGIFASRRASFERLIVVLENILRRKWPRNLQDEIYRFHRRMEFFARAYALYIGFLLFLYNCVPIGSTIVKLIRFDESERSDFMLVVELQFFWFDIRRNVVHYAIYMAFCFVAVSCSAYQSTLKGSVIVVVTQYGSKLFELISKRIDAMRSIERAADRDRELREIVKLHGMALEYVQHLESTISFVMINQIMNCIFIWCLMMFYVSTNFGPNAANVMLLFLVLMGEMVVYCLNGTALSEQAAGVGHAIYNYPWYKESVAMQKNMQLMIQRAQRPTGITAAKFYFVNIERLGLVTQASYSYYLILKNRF
T2 sequence (Q178U6 1-478 partner): T1 sequence (Q178U6 1-478 partner)
Description: as §1, §2, §3

[3] = molecular target: T3, AaegOR28 (Aedes aegypti, UniProt Q0IGE1); test: Two-electrode voltage clamp of Xenopus laevis oocytes expressing AaegOR28/Orco (blends, unitary compounds, concentration-response); conditions: AaegOR28, compounds of blend Alcohols 3; for Raw Data (Responses in nA), Alcohols 3 unitary compounds: individual oocytes 1-10
T3 sequence (Q0IGE1 1-394): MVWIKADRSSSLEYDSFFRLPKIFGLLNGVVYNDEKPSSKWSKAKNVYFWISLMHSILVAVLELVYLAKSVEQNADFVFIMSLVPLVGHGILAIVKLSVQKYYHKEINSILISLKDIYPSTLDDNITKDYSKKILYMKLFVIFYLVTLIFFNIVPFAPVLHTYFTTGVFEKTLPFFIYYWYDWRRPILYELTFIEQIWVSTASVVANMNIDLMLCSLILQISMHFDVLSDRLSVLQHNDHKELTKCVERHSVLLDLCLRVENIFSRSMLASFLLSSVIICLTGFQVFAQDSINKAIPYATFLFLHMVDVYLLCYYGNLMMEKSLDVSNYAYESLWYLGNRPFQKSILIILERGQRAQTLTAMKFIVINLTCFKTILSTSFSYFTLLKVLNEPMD
T3 sequence (Q178U6 1-478 partner): T1 sequence (Q178U6 1-478 partner)
Description: as §1, §2, §3

Row | SMILES | Raw Data (Responses in nA), Alcohols 1 unitary compounds [1] | Raw data (Responses in nA), unitary compounds of Indoles 1, Alcohols 1, Alcohols 3 [2] | Normalized response, Average, Alcohols 1 unitary compounds [1] | Normalized response, Alcohols 1 unitary compounds [1] | Normalized response, unitary compounds, Average [2] | Normalized response, unitary compounds of Indoles 1, Alcohols 1, Alcohols 3 [2] | also measured
1 | CC1CCC(C(C)C)C(O)C1 (racemic) [DL-menthol] | 5.0 nA (2×) and 0.0 nA (6×) | 0.0 nA (4×) and 30.0 nA and 10.0 nA and 5.0 nA | – | – | – | – | –
2 | CC(C)O [2-propanol] | 10.0 nA and 20.0 nA and 15.0 nA and 0.0 nA (5×) | 0.0 nA | 10.7 | 5.9 and 50.0 and 30.0 and 0.0 (5×) | 0.0 | 0.0 | –
3 | CC(C)(C)c1ccc(O)cc1 [4-tert butylphenol] | 0.0 nA (7×) and 10.0 nA | – | – | – | – | – | –
4 | C=C[C@@](C)(O)CCC=C(C)C [(S)-(+)-linalool] | – | – | – | – | – | – | Normalized response, Average, Alcohols 3 unitary compounds ([3]; average of 10 oocytes): 19.1; Raw Data (Responses in nA), Alcohols 3 unitary compounds [3]: 10 nA (2×) and 5 nA (5×) and 0 nA and 15 nA (2×); Normalized response, Alcohols 3 unitary compounds ([3]; individual oocytes 1-10, normalized to largest response of each oocyte): 33.3 and 14.3 and 25.0 and 0.0 and 30.0 and 16.7 (2×) and 12.5 and 22.2 and 20
5 | CC(C)=CCC/C(C)=C/CO [Geraniol] | – | – | – | – | – | – | Raw Data (Responses in nA), Alcohols 3 unitary compounds [3]: 0 nA
6 | CCO [ethanol] | 0.0 nA | 0.0 nA | 0.0 | 0.0 | 0.0 | 0.0 | –
7 | CC(C)=CCC/C(C)=C/CC/C(C)=C/CO [farnesol] | 170.0 nA and 40.0 nA and 50.0 nA and 120.0 nA and 340.0 nA and 75.0 nA and 80.0 nA and 270.0 nA | 0.0 nA | – | – | – | – | EC50 ([1]; AaegOR31/Orco expressing oocytes, TEVC, concentration-response of normalized current): 14.3 µM; Raw Data (Responses in nA), concentration-response ([1]; concentration 1e-7 M): 0.0 nA (4×) and 20.0 nA and 30.0 nA (2×) and 10.0 nA (2×) and 5.0 nA; Raw Data (Responses in nA), concentration-response ([1]; concentration 5e-7 M): 5.0 nA (3×) and 10.0 nA (4×) and 20.0 nA and 0.0 nA and 15.0 nA; Raw Data (Responses in nA), concentration-response ([1]; concentration 1e-6 M): 20.0 nA (6×) and 0.0 nA (2×) and 10.0 nA (2×); Raw Data (Responses in nA), concentration-response ([1]; concentration 5e-6 M): 90.0 nA (2×) and 80.0 nA and 30.0 nA and 50.0 nA (2×) and 20.0 nA (2×) and 40.0 nA and 100.0 nA; Raw Data (Responses in nA), concentration-response ([1]; concentration 1e-5 M): 130.0 nA (2×) and 120.0 nA (2×) and 55.0 nA and 90.0 nA and 160.0 nA and 45.0 nA and 50.0 nA and 170.0 nA; Raw Data (Responses in nA), concentration-response ([1]; concentration 5e-5 M): 190.0 nA and 320.0 nA and 270.0 nA and 130.0 nA and 260.0 nA and 430.0 nA and 150.0 nA and 100.0 nA and 290.0 nA and 360.0 nA; Raw Data (Responses in nA), concentration-response ([1]; concentration 0.0001 M): 160.0 nA and 440.0 nA and 280.0 nA and 210.0 nA and 270.0 nA and 400.0 nA and 170.0 nA and 80.0 nA and 320.0 nA and 430.0 nA
8 | OCC(O)CO [glycerol] | 5.0 nA (2×) and 0.0 nA (6×) | 0.0 nA | – | – | – | – | –
9 | Cc1cccc(O)c1 [m-cresol] | 15.0 nA and 0.0 nA (7×) | 0.0 nA and 75.0 nA and 25.0 nA (2×) and 40.0 nA (2×) and 45.0 nA | – | – | – | – | –
10 | CO [methanol] | 0.0 nA | 0.0 nA | 0.0 | 0.0 | 0.0 | 0.0 | –
11 | CCCCO [n-butanol] | 0.0 nA | 0.0 nA | 0.0 | 0.0 | 0.0 | 0.0 | –
12 | Cc1ccccc1O [o-cresol] | 0.0 nA | 0.0 nA and 110.0 nA and 25.0 nA and 35.0 nA and 50.0 nA and 45.0 nA and 15.0 nA | – | – | – | – | –
13 | Cc1ccc(O)cc1 [p-cresol] | 0.0 nA | 20.0 nA and 290.0 nA and 85.0 nA and 140.0 nA and 165.0 nA and 135.0 nA and 90.0 nA | – | – | – | – | –
